Laboratory results from patent publication US10343974B1, “Cyclohexanol ethers as mediterranean fruit fly attractants” (The United States of America, as Represented by the …, priority 2018, dated 2019).

How the values were obtained:
[1] = DeMilo 1992; cited from earlier work
[2] = system: Mediterranean fruit flies; experiment: Field cage bioassay: attraction of male Mediterranean fruit flies to Jackson traps baited with PVC plugs; format: in vivo, Ceratitis capitata; details: grand mean capture ± 2 pooled standard deviations; ~100 mg PVC plug with ~40% compound in Jackson trap; screened field cage, 24-hour period; 150 male flies released per cage; same letter = not significantly different (P >0.05)
Experimental: Assessment of Biological Properties: Compounds were assessed for the ability to attract Mediterranean fruit flies in an enclosed field cage.
Formulation of compounds on PVC disks: All test compounds were >95% pure by GC-MS, except for (1R*,2R*,5R*)-sec-butyl 5-methoxy-2-methylcyclohexanecarboxylate which was tested as a mixture of diastereomers due to the use of (±)-2-butanol in the formation of the ester, and were formulated as ˜100 mg polymeric plugs containing ˜40% by mass of a compound of Formula (I). A typical protocol dissolved polyvinyl chloride (PVC) (864 mg), dibutyl phthalate (DBP) (432 mg), dioctyl phthalate (DOP) (432 mg), (1R*,2R*,5R*)-ethyl 5-methoxy-2-methylcyclohexanecarboxylate (1) (1.152 g) in THF (8.64 g). The mixture was then pipetted (˜400 mg) into respective porcelain wells. The THF was allowed to evaporate by warming the porcelain plate at 40° C. for 15 minutes, and then standing at room temperature until a constant weigh was achieved, to afford ˜26 PVC-attractant disks with a mass of 104.0±3.4 mg, (x±s).
Bioassays: Compounds were evaluated in screened field cages (3×3×2.5 meters) over a 24-hour period. Each field cage housed a single carousel, centered on the ceiling about 2 meters above the floor of the enclosure, which rotated (˜1 revolution/min) 8 equally-spaced Jackson traps. A polymeric plug containing a test compound was placed in a small basket in each Jackson trap with a sticky insert to record the number of fly catches. Test compounds (6) were screened together with two “standard” attractants, TML (FarmaTech, USA) and (±)-CER-B1 (prepared according to Khrimian, A., et al., Tetrahedron, 59: 5475 (2003)). A typical experiment (1) used 3 cages and began between 9-10 am each day, (2) TML and (±)-CER-B were arranged at two directly opposing poles of the carousel with 6 test compounds (3 on each side of TML and (±)-CER-B1) randomly placed relative to the standards, (3) 6 randomly-selected patterns were tested over a 2-day period, with the same sequence of patterns repeated three times (days 1 & 2, days 3 & 4, and days 5 & 6) for a total of 3 replicates, (4) each 2-day period (days 1 & 2, days 3 & 4, and days 5 & 6) used a different cohort of 7-8 day old laboratory reared male Mediterranean fruit flies (n=3), and (5) 150 male Mediterranean fruit flies were released each morning per 24-h cage bioassay for a total of 900 flies per cohort and 2700 flies during the entire testing period. A fresh lure was used for each cage experiment (n=18). Mean fly catch numbers are depicted in the table below.
For each cohort, a single-factor ANOVAs was applied to test the null hypothesis that the mean capture of a particular lure across both days (six trials total, three each day) could be used to estimate attraction. […] An additional single-factor ANOVAs was applied to test the null hypothesis that the grand mean capture of a particular lure could be used to estimate attraction, independent of the cohort. Again, none of the lure-respective ANOVAs were significant, a result that provided evidence to support congruence in the biological response across all cages, days, and cohorts. Also depicted in the table below, the grand mean capture ±2 pooled standard deviations (2 spooled) (Skoog, D. and Leary, J., Principles of Instrumental Analysis, John Wiley & Sons, Eds: New York, 1992). In general, the most attractive compounds in the above bioassay captured a similar (statistically equivalent) or greater number of flies relative to trimedlure.

male medfly = details: classification in the literature; cited from earlier work

Compound: ethyl esters of 4 (and 5)-iodo-2-methylcyclohexane-1-carboxylate [CER]
- stability in formulations and the environment [1]: unstable

Compound: CCCOC(=O)[C@@H]1C[C@H](OC)CC[C@H]1C (relative stereo) [(1R*,2R*,5R*)-propyl 5-methoxy-2-methylcyclohexanecarboxylate]
- Mean Catch per replicate [2]: 38.0 ± 9.7b

Compound: CCOC(=O)[C@@H]1C[C@H](I)CC[C@H]1C (relative stereo) [Ceralure-B1, (1R*,2R*,5R*)-ethyl 5-iodo-2-methylcyclohexanecarboxylate, reference compound]
- Mean Catch per replicate [2]: 94.0 ± 10.7 days

Compound: CCC(C)OC(=O)[C@@H]1C[C@H](OC)CC[C@H]1C (relative stereo) [(1R*,2R*,5R*)-sec-butyl 5-methoxy-2-methylcyclohexanecarboxylate]
- Mean Catch per replicate [2]: 13.7 ± 3.0c

Compound: tert-butyl 4- (and 5)-chloro-2-methylcyclohexanecarboxylate [Trimedlure, reference compound]
- Mean Catch per replicate [2]: 82.7 ± 11.3 days
- attractant strength for male medfly (male medfly): weak attractant

Compound: CO[C@@H]1CC[C@@H](C)[C@H](C(=O)OC(C)C)C1 (relative stereo) [(1R*,2R*,5R*)-isopropyl 5-methoxy-2-methylcyclohexanecarboxylate]
- Mean Catch per replicate [2]: 64.7 ± 10.2a

Compound: CO[C@@H]1CC[C@@H](C)[C@H](C(=O)OCC(F)(F)F)C1 (relative stereo) [(1R*,2R*,5R*)-2,2,2-trifluoroethyl 5-methoxy-2-methylcyclohexanecarboxylate]
- Mean Catch per replicate [2]: 94.0 ± 11.5 days

Compound: CCOC(=O)[C@@H]1C[C@H](OC)CC[C@H]1C (relative stereo) [(1R*,2R*,5R*)-ethyl 5-methoxy-2-methylcyclohexanecarboxylate]
- Mean Catch per replicate [2]: 91.0 ± 9.8 days

Compound: CO[C@@H]1CC[C@@H](C)[C@H](C(=O)OC(C)(C)C)C1 (relative stereo) [(1R*,2R*,5R*)-tert-butyl 5-methoxy-2-methylcyclohexanecarboxylate]
- Mean Catch per replicate [2]: 9.0 ± 2.8c
